# Measurements: publication PMC12691695, “Functional insight into cyclin-dependent kinase (CDK)7 via chemical inhibition of the priority fungal pathogen Cryptococcus neoformans” (mBio, 2025)
# Molecular target: T1, CnCDK7; pulled-down CAK complex (CnCAK: CDK7-CycH-Mat1) (Cryptococcus neoformans, UniProt J9W126)
# T1 construct: gene CNAG_06445; native trimeric CAK complex pulled down on mNeonGreen-Trap beads from C. neoformans; CDK7 tagged with mNeonGreen, CycH with V5, Mat1 with 6xHis; with Cyclin H
# T1 sequence (J9W126 1-358): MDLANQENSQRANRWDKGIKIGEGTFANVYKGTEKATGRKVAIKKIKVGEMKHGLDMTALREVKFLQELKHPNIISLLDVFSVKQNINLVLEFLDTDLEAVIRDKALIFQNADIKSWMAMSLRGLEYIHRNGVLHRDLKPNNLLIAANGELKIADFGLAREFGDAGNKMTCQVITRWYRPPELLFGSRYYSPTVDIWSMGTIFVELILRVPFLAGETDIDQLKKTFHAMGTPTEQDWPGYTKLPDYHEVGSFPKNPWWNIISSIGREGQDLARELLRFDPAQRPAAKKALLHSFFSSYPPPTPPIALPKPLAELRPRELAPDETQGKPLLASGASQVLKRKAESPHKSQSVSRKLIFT
# T1 sequence (J9VUP1 1-447 partner): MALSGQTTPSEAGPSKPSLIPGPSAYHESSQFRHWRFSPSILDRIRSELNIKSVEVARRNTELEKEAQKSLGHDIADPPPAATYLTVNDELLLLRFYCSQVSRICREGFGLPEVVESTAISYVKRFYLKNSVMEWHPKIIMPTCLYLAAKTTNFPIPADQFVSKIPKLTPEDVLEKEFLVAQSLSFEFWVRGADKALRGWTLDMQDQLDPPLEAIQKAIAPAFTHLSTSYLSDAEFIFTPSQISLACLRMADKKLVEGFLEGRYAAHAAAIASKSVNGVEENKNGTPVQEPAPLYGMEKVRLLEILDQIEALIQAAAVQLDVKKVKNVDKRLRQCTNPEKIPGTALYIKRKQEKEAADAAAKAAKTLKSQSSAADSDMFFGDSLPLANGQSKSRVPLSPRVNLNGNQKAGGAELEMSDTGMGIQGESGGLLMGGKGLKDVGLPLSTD
# T1 sequence (J9VS06 1-372 partner): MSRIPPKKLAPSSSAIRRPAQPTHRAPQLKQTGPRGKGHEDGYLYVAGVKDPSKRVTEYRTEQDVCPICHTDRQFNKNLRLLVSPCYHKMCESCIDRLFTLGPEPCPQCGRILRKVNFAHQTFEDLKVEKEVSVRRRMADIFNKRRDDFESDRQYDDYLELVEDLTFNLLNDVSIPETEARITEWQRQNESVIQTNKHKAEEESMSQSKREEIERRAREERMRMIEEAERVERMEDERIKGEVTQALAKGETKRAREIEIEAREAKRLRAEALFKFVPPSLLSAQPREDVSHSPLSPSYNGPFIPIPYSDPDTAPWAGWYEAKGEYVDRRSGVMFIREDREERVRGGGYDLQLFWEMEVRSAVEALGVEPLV
# Test: Kinase-Glo ATP consumption, pulled-down CAK, […] min
# Assay type: biochemical
# Settings: co-substrate 250 µM CDK7/9tide; 20 mM MgCl2, pH 7.5, room temperature; bead-bound complex
structure (smiles),measurement,value
Nc1ncnc2c1ncn2[C@@H]1O[C@H](COP(=O)(O)OP(=O)(O)OP(=O)(O)O)[C@@H](O)[C@H]1O [ATP],"Kinase-Glo ATP consumption, pulled-down CAK, 300 min",ATP consumption (due to the phosphorylation of the peptide substrate by CDK7)
